According to patent US20070118211A1, “Method for preparing drug eluting medical devices and devices obtained therefrom” (priority 2003, published 2007):

Assay: elution of the drug from coated stents in physiological solution (UV absorbance)
Type: physicochemical
Details: stent with allylamine polymer deposited by cold plasma compared with stent with polymer according to the state of the art (polybutadiene layers); 1 cc physiological solution; absorbance at 261 nm; FIG. 1
Method: Next, the stents were immersed in test tubes containing 1 cc of physiological solution and the rate of elution of the drug was measured by acquiring the visible UV spectrum using a Unicam 8700 spectrophotometer and reading off the absorbance at 261 nm. The correlation between absorbance and concentration was established by measuring the absorbance of solutions of known concentration (calibration curve). The drug elution measurements were carried out at fixed time intervals and the physiological solution was changed at each measurement.
10 mg of dexamethasone were dissolved in 1 cc of ethanol and applied as described previously. The elution curves were again measured as described in example 1 and the absorbance at 264.4 nm was read off.

CS(=O)(=O)O.Cc1ccc(NC(=O)c2ccc(CN3CCN(C)CC3)cc2)cc1Nc1nccc(-c2cccnc2)n1 [hydrophilic drug, 4-[(4-methyl-1-piperazinyl)methyl]-N-[4-methyl-3-[[4-(3-pyridinyl)-2-pyrimidinyl]amino]-phenyl]benzamide methanesulphonate]
elution of the hydrophilic drug: significantly delays the elution
